Experimental data from PubChem BioAssay AID844 (SRMLSC, 2007).
Calls of active or inactive are those of the source. No rule for the calls is given here.

System: MRP1 cells, doxorubicin viability shift, 10 uM compound
Assay: doxorubicin EC50 increase in MRP-1 cells, dose response, cell-based, doxorubicin EC50 shift (AID 844)
Conditions: for EC50: measured here: doxorubicin EC50 with compound

Compound | fold increase in Dox EC50 | EC50 [µM]
CCSc1nnc(-c2ccc(C)cc2)c2ccccc12 | 0.61 (inactive) | 3.3
CCc1nnc(NC(=O)c2ccc(S(=O)(=O)NCC(C)C)cc2)s1 | 0.53 (inactive) | 2.88
O=[N+]([O-])c1ccc(N/N=C/c2ccccc2)c(F)c1 | 0.64 (inactive) | 3.44
Cc1ccc(/C=C2\SC(=S)N(CCCC(=O)Nc3ccccn3)C2=O)cc1 | 0.82 (inactive) | 4.44
Cc1nnc(NC(=O)c2c(F)cccc2F)s1 | 1.23 (inactive) | 6.63
N#CCCNC(=O)Cn1c(COc2ccc(Cl)cc2)nc2ccccc21 | 0.85 (inactive) | 4.57
Cn1c(=O)c2c(nc(OCc3ccccc3)n2C)n(C)c1=O | 0.7 (inactive) | 3.78
Cc1ccc(S(=O)(=O)Nc2nc3ccccc3nc2NCc2ccc3c(c2)OCO3)cc1C | 1.02 (inactive) | 5.49
Cc1ccc(Nc2nnc(-c3ccc(N4CCOCC4)c([N+](=O)[O-])c3)c3ccccc23)cc1 | 0.61 (inactive) | 3.28
Cn1c(C(=O)NCc2ccccc2)cc2oc3ccccc3c21 | 1.46 (inactive) | 7.9
CCCOc1ccc(CSc2ncn[nH]2)cc1 | 0.89 (inactive) | 4.79
CCOc1ccc(Cn2nnc(C(=O)NCCc3ccccc3)c2N)cc1 | 1.05 (inactive) | 5.65
O=C(CSc1ncn[nH]1)NC12CC3CC(CC(C3)C1)C2 | 0.64 (inactive) | 3.43
O=C(CSc1ccccc1)Nc1nnc(COc2ccc(Cl)cc2)s1 | 0.43 (inactive) | 2.34
CC(=O)c1ccc(NC(=O)CCCN2C(=O)/C(=C/C(C)=C/c3ccccc3)SC2=S)cc1 | 0.19 (inactive) | 1.01
Cc1ccc(NC(=O)CCNC(=O)c2ccc(Cl)cc2)cc1F | 1.15 (inactive) | 6.19
CC(C)(C)C1CCc2c(sc(NC(=O)c3cccs3)c2C(=O)N2CCCCC2)C1 (configuration not stated) | 0.96 (inactive) | 5.2
Nc1nc2n(n1)C(c1cccs1)CC(c1ccc(Br)cc1)N2 (configuration not stated) | 0.91 (inactive) | 4.93
c1ccc2c(c1)Nc1nccnc1S2 | 0.12 (inactive) | 0.637
CCn1c(C)c(C)c2cc(C(=O)Nc3cccc(Cl)c3)ccc21 | 0.43 (inactive) | 2.33
COc1ccc(NC(=O)COC(=O)c2c3c(nc4ccccc24)CCCC3)cc1Cl | 0.68 (inactive) | 3.65
Cc1cc(C)nc(N/N=C/c2cccc3ccccc23)n1 | 1 (inactive) | 5.39
CCCCn1nnc(NC(=S)NC(=O)c2cccs2)n1 | 1.16 (inactive) | 6.26
Cc1ccc(OCc2nnc(SCC(=O)Nc3cccc4ccccc34)n2-c2ccccc2)cc1 | 0.33 (inactive) | 1.8
CSC1=NCCN1C(=O)Cc1ccc(Cl)cc1 | 1.04 (inactive) | 5.6
COC(=O)N/N=C/c1ccc(-c2ccc(Cl)c(Cl)c2)o1 | 0.67 (inactive) | 3.62

Compound | fold increase in Dox EC50 | EC50 [µM]
CC(C)Cn1c2c(c(O)c(C(=O)Nc3ccc(F)cc3)c1=O)CCCC2 | 0.95 (inactive) | 5.15
COc1ccc(C2CC(c3ccccc3)=NN2C(=O)COC(=O)c2cccnc2Cl)cc1 (configuration not stated) | 0.63 (inactive) | 3.4
CN(C)C(=O)Oc1ccc(OC(=O)c2ccccc2)cc1 | 1.17 (inactive) | 6.32
COc1ccc(NC(=O)CC2C(=O)N(c3ccc(Cl)cc3)C(=S)N2NC(=O)c2cccc(F)c2)cc1 (configuration not stated) | 0.67 (inactive) | 3.59
CC(C)N(Cc1cc2ccccc2[nH]c1=O)C(=O)C(C)(C)C | 1.47 (inactive) | 7.93
CNC(=S)Nc1ccc(C)cc1 | 0.67 (inactive) | 3.64
O=C(CSc1nc2ccccc2o1)NCc1ccc2c(c1)OCO2 | 1.15 (inactive) | 6.23
Cc1nc2ccccc2c(=O)n1/N=C/c1c(O)ccc2oc3c(c12)CCCC3 | 0.28 (inactive) | 1.5
CCOc1ccccc1N(C(=O)c1snc(C(N)=O)c1N)C(C(=O)NCCC(C)C)c1ccco1 (configuration not stated) | 0.3 (inactive) | 1.62
Cn1c(=O)[nH]c(=O)c2c1nc(SCC(=O)Nc1ccccc1)n2Cc1ccccc1 | 0.45 (inactive) | 2.44
O=C(Cn1c(COc2ccc(Cl)cc2)nc2ccccc21)NCC(F)(F)F | 0.75 (inactive) | 4.04
Cc1ccc(Cl)cc1N1CCN(C(=O)Cc2ccc(-n3c(=O)[nH]c4ccsc4c3=O)cc2)CC1 | 0.78 (inactive) | 4.24
COc1ccc(CCNC(=O)CSCc2ccc(Cl)cc2)cc1OC | 0.67 (inactive) | 3.59
CC(CCc1ccccc1)NC(=O)C1CCN(C(=O)c2sccc2-n2cccc2)CC1 (configuration not stated) | 0.28 (inactive) | 1.51
O=C(CSc1ncn[nH]1)Nc1ccc(Br)cc1F | 0.98 (inactive) | 5.28
N#CCn1nnc(-c2ccc3c(c2)OCO3)n1 | 1.01 (inactive) | 5.43
CCC(C)c1ccc(O)c(NC(=O)c2ncn[nH]2)c1 (configuration not stated) | 0.97 (inactive) | 5.25
CCOC(=O)C1=C(C)N=C2SC(CC)C(=O)N2C1c1cccc(F)c1 (configuration not stated) | 1.14 (inactive) | 6.14
COc1ccc(C2C(C(=O)Nc3cccc(C)n3)CCC(=O)N2c2ccc(OC)cc2)cc1 (configuration not stated) | 0.64 (inactive) | 3.44
Cc1cccc(-c2cc3nc(C)cc(N4CC(C)CC(C)C4)n3n2)c1 (configuration not stated) | 0.49 (inactive) | 2.65
CCOC(=O)c1c(-c2ccc(F)cc2)csc1NC(=O)c1c(-c2ccccc2)noc1C | 0.56 (inactive) | 3
O=C(CC1SC(=O)N(Cc2ccc(Cl)cc2)C1=O)Nc1nccs1 (configuration not stated) | 1.75 | 9.46
CCOC(=O)c1c(-c2ccc(C)o2)csc1NC(=O)CSc1ncn[nH]1 | 0.51 (inactive) | 2.74
COC(=O)C1C(=O)c2c([nH]c(C(=O)OC3CCCCC3)c2C)CC1C (configuration not stated) | 0.69 (inactive) | 3.74
N=C(N)SCc1nc2ccccn2c1Br | 0.28 (inactive) | 1.49
NNC(=O)CNC(c1ccccc1)c1cc(Br)ccc1NC(=O)c1cccc(Cl)c1 (configuration not stated) | 1.21 (inactive) | 6.53

Compound | fold increase in Dox EC50 | EC50 [µM]
Cc1cc(NC(=O)c2cc(C(C)C)on2)nn1Cc1ccc(Cl)cc1 | 1.35 (inactive) | 7.27
O=C(CCCCl)NC1=NN(c2ccccc2)C(=O)C1 | 1.56 | 8.43
Cn1c(N)c(C(=O)COC(=O)c2cc(C3CC3)nc3ccccc23)c(=O)n(Cc2ccccc2)c1=O | 0.94 (inactive) | 5.07
COc1ccc(Cn2c(O)c(C=Nc3ccc(OC)cc3)c3ccccc3c2=O)cc1 | 1.34 (inactive) | 7.24
COc1ccc(NS(=O)(=O)c2cc(NC(=O)CNC(=O)c3ccc(C)s3)ccc2Cl)cc1 | 1.44 (inactive) | 7.78
CC(C)c1ccc(C(=O)CSc2ncn[nH]2)cc1 | 0.96 (inactive) | 5.17
O=C(CSc1nnc(-c2ccccc2)n1-c1ccc(Cl)cc1)N/N=C/c1ccco1 | 0.53 (inactive) | 2.84
O=C(COc1ccc(Br)cc1)N1CCN(C2CCCC2)CC1 | 1.08 (inactive) | 5.85
COc1ccc(/C=N/Nc2nc(-c3ccc(Cl)cc3)cc(C(F)(F)F)n2)cc1OC | 0.35 (inactive) | 1.9
Clc1ccc(OCc2nnnn2-c2ccccc2)cc1 | 0.96 (inactive) | 5.21
Cc1cc(C)cc(NC(=O)c2oc3ccccc3c2COc2ccccc2)c1 | 0.88 (inactive) | 4.78
COC(=O)c1ccc(OC)c(CSc2nnc(COc3ccc(Cl)cc3)o2)c1 | 1.44 (inactive) | 7.77
Cc1ccc(-c2nc(C3CCCN(S(=O)(=O)c4ccc(C)cc4)C3)no2)cc1 (configuration not stated) | 1.08 (inactive) | 5.85
Cc1nc(NC(=S)NC(=O)c2cccs2)sc1C(=O)N(C)C | 1.04 (inactive) | 5.59
COC(=O)C(CC(C)C)NC(=O)CSc1nc(-c2ccccc2)c(C#N)c(=O)[nH]1 (configuration not stated) | 1.85 | 10
CC(=O)/C(C#N)=C1\NC(=O)C(Cc2ccc(C)c(C)c2)S1 (configuration not stated) | 1.19 (inactive) | 6.44
O=C(COC(=O)c1c(Cl)cccc1Cl)Nc1cc(Cl)ccc1Oc1ccccc1 | 0.36 (inactive) | 1.97
Cc1[nH]c2ccccc2c1C(=O)C(=O)NCCC1=CCCCC1 | 0.98 (inactive) | 5.3
O=C(NC1CCCCCC1)c1nnc(Cc2ccc(Cl)cc2)o1 | 0.78 (inactive) | 4.21
CSc1ncc(Cl)c(C(=O)Nc2nnc(SC)s2)n1 | 1.12 (inactive) | 6.07
Cc1ccc(N2C(=O)NC(=O)/C(=C\c3ccsc3)C2=O)cc1C | 0.8 (inactive) | 4.33
COc1ccc(OC)c(-c2cc(C(=O)Nc3c(C)nn(Cc4ccccc4Cl)c3C)no2)c1 | 0.55 (inactive) | 2.99
Brc1cc2c(cc1COc1ccc(-c3nn[nH]n3)cc1)OCO2 | 1.73 | 9.31
O=C(NC(=S)Nc1nc(-c2ccccc2)cs1)c1cncc(Br)c1 | 0.99 (inactive) | 5.35
